Results: patent US11883387B2, “PqsR inverse agonists” (HELMHOLTZ-ZENTRUM FÜR INFEKTIONSFORSCHUNG GMBH, priority 2018, dated 2024)

Experiments:
[1] = system: P. aeruginosa pyocyanin production; experiment: Pyocyanin assay; format: cell-based, P. aeruginosa PA14; details: Pseudomonas aeruginosa, PA14, 16 h, read-out: IC50-value towards pyocyanin production, PA14 in PPGAS medium, 16 h
Summary of the method: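 PA14 in PPGAS medium from OD600 0.02 grown 16 h at 37 °C, 200 rpm, with compounds. Pyocyanin extracted with chloroform, back-extracted into 0.2 M HCl, OD520 normalised to OD600.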

[2] = system: P. aeruginosa PA14 biofilm; experiment: Biofilm assay, crystal violet staining (biofilm mass); format: cell-based; details: Pseudomonas aeruginosa, PA14, PPGAS medium, read-out: IC50-value towards biofilm formation
Protocol: (§1) Commonly used crystal violet (CV) assay procedures (PMID: 3905855, PMID: 10547784, PMID: 22488868) were adapted for determination of biofilm mass. For the cultivation of biofilm in 96 well plates, the protocol described by Frei et al. (PMID: 22488868) was slightly modified by replacement of medium and Pseudomonas strain used. The experiment was performed using P. aeruginosa PA14 strain and PPGAS medium. CV staining was used to detect compound effects on the overall biofilm biomass. Impact on eDNA was assessed by incubation of biofilm with propidium iodine solution (0.05 mg ml^−1) for 24 h and detection of specific florescence at 620 nm (excitation 544 nm) after a thorough washing step with 18 MΩ H2O. (PMID: 16430688)

[3] = system: eDNA content of P. aeruginosa PA14 biofilm; experiment: Biofilm assay, eDNA content (propidium iodine); format: cell-based; details: Pseudomonas aeruginosa; PA14, propidium iodine fluorescence; read-out: IC50-value towards eDNA content of the biofilm
Protocol: as §1

[4] = Metabolic stability against human hepatic S9 fraction; format: in vitro ADME; details: pooled human liver S9 fraction; 1 μM compound, 1 mg/mL pooled human liver S9, phase I and II cofactors, 37° C.; read-out: half-life (t1/2) towards human hepatic S9 fraction
Protocol: For the evaluation of combined phase I and phase II metabolic stability, the compound (1 μM) was incubated with 1 mg/mL pooled human liver S9 fraction (BD Gentest), 2 mM NADPH regenerating system, 1 mM UDPGA, 10 mM MgCl2 and 0.1 mM PAPS at 37° C. for 0, 5, 15, 30 and 60 min. The metabolic stability of Testosterone (1 μM) and 7-hydroxycoumarin (1 μM) were determined in parallel to confirm the enzymatic activity of the S9 fraction. The incubation was stopped by precipitation of S9 enzymes with 2 volumes of cold acetonitrile containing internal standard (750 nM Diphenhydramine). Samples were stored on ice for 10 min and precipitated protein was removed by centrifugation (10 min, 4° C., 17,000 g). Concentration of the remaining test compound at the different time points was analyzed by LC-MS/MS (TSQ Quantum Access MAX, Thermo Fisher, Dreieich, Germany) and used to determine half-life (t/2).

HepG2 cells = experiment: Cytotoxicity (MTT) toward HepG2; format: cell-based; details: Homo sapiens, 48 h, upper class: or at solubility maximum, read-out: IC50-value towards HepG2
Protocol: (§2) To obtain information regarding the toxicity of our compounds, their impact on the viability of human cells was investigated. HepG2 and HEK293 cells (2×10^5 per well) were seeded in 24-well, flat-bottomed culture plates. 24 h after seeding the cells the incubation was started by the addition of compounds in a final DMSO concentration of 1%. The living cell mass was determined 48 h after treatment with compounds by adding 0.1 volumes of 3-(4,5-dimethylthiazol-2-yl)-2,5-diphenyltetrazolium bromide (MTT) solution (5 mg per mL sterile PBS) (Sigma, St. Louis, MO) to the wells. After incubating the cells for 30 min at 37° C. (atmosphere containing 5% CO2), MTT crystals were dissolved in a solution containing 10% SDS and 0.5% acetic acid in DMSO. The optical density (OD) of the samples was determined photometrically at 570 nm in a FLUOstar Omega plate reader (BMG labtech, Ortenberg, Germany). To obtain inhibition values for each sample, their ODs were related to those of DMSO controls.

HEK293 cells = experiment: Cytotoxicity (MTT) toward HEK293; format: cell-based; details: Homo sapiens, 48 h, upper class: or at solubility maximum, read-out: IC50-value towards HEK293
Protocol: as §2

PqsR = PqsR (Pseudomonas aeruginosa, UniProt Q9I4X0); experiment: E. coli based β-galactosidase reporter gene assay (PqsR inverse agonistic activity); format: cell-based; design: expressed in transfected cells; host or cells: Escherichia coli DH5α
Summary of the method: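 E. coli DH5α carrying pEAL08-2 (tac-driven pqsR with pqsA-lacZ) was grown to OD600 0.2 and incubated with 0.001–10 μM compound plus 50 nM PQS for 2.5 h at 37 °C. β-Galactosidase activity was measured by ONPG conversion in permeabilized cells and normalized between the no-PQS and solvent controls. IC50 came from concentration variation.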

Sequence of PqsR (Q9I4X0 whole entry): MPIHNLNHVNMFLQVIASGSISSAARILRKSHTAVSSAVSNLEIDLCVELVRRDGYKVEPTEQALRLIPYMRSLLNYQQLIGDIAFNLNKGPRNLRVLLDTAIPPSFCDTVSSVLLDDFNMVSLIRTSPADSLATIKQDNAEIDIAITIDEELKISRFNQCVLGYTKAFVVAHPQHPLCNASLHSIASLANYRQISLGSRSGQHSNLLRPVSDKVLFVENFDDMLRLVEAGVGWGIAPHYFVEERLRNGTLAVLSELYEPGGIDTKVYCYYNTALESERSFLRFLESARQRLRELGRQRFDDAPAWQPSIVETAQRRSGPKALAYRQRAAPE

FC(F)(F)c1cc(NCc2cn(-c3ccc(Oc4ccccc4)cc3)nn2)ccn1 [Compound 001, N-((1-(4-Phenoxyphenyl)-1H-1,2,3-triazol-4-yl)methyl)-2-(trifluoromethyl) pyridin-4-amine]
IC50 [1]: ≤ 0.25 µM
IC50 [2]: ≤ 0.5 µM
IC50 [3]: < 0.5 µM
half-life at 1 μM [4]: 41 to 60 min
IC50 (HepG2 cells): 25 to 50 µM
IC50 (HEK293 cells): 25 to 50 µM
IC50 (PqsR): ≤ 0.05 µM
